The results in this text go back to ChEMBL document CHEMBL1151633, “Biological Activities of Asterosaponins With Special Reference to Structure-Activity Relationships” (J Nat Prod, 1984).

Data set [1] deals with Patiria pectinifera. Kind of data set: Inhibition of actin polymerization in starfish during embryogenesis.
For data set [2], the system named is Patiria pectinifera. The experiment in a line: Effect on starfish embryo development assessed as abnormal embryo induction at bastula or gastula stage after 24 hrs by lactoorcein staining. Type of data set: functional.
Data set [3] in a line: Toxicity in sea urchin embryo assessed as inhibition of embryo development before morula stage after 24 hrs by microscopy. As to conditions: hemicentrotus pulcherrimus.
Data set [4] in a line: Toxicity in rabbit RBC assessed as hemolytic index. The class given is cell-based, Oryctolagus cuniculus. Particulars: erythrocyte.
Data set [5] relates to Hemicentrotus pulcherrimus. Kind of data set: Inhibition of first cleavage in sea urchin embryo after 1.5 hrs by microscopy. Type of data set: functional.

Values after ≈ are worked out from the molar mass of the structure shown. Active and inactive are the calls of the source. No cut-off for these calls is given here.

As for `CC(C)CC(=O)C[C@@](C)(O)[C@H]1CC[C@H]2[C@@H]3C[C@H](OC4O[C@H](C)[C@@H](O)[C@H](OC5OC[C@@H](OC6O[C@H](CO)[C@H](O)[C@H](O)[C@H]6OC6O[C@H](C)[C@H](O)[C@H](OC7O[C@H](CO)[C@H](O)[C@H](O)[C@H]7O)[C@H]6O)[C@H](O)[C@H]5OC5O[C@H](C)[C@@H](O)[C@H](O)[C@H]5O)[C@H]4O)[C@H]4C[C@@H](OS(=O)(=O)[O-])CC[C@]4(C)C3=CC[C@@]21C.[Na+]` (stereo partly drawn), the result in data set [1] was Active. The ED50 is 200 µg/mL in data set [2] and 30 µg/mL in data set [5]. Further, the LD99 in data set [3] amounted to 10 µg/mL. Moreover, the HI in data set [4] worked out at 5100.

Take `CC(C)CC(=O)C[C@@](C)(O)[C@H]1CC[C@H]2[C@@H]3C[C@H](OC4O[C@H](C)[C@@H](O)[C@H](OC5OC[C@@H](OC6O[C@H](C)[C@@H](O)[C@H](O)[C@H]6OC6O[C@H](C)[C@H](O)[C@H](OC7O[C@H](C)[C@H](O)[C@H](O)[C@H]7O)[C@H]6O)[C@H](O)[C@H]5OC5O[C@H](C)[C@@H](O)[C@H](O)[C@H]5O)[C@H]4O)[C@H]4C[C@@H](O)CC[C@]4(C)C3=CC[C@@]21C` (stereo partly drawn): in data set [1], the outcome was Active. In addition, the ED50 stood at 100 µg/mL (≈ 77.2 µM) in data set [2] and 50 µg/mL (≈ 38.6 µM) in data set [5]. For the same compound, the LD99 in data set [3] came to 10 µg/mL. In data set [4], the HI is below 2550.

`CC(C)CC(=O)C[C@@](C)(O)[C@H]1CC[C@H]2[C@@H]3C[C@H](OC4O[C@H](C)[C@@H](O)[C@H](OC5OC[C@@H](OC6O[C@H](C)[C@@H](O)[C@H](O)[C@H]6OC6O[C@H](C)[C@H](O)[C@H](OC7O[C@H](C)[C@H](O)[C@H](O)[C@H]7O)[C@H]6O)[C@H](O)[C@H]5OC5O[C@H](C)[C@@H](O)[C@H](O)[C@H]5O)[C@H]4O)[C@H]4C[C@@H](OS(=O)(=O)[O-])CC[C@]4(C)C3=CC[C@@]21C.[Na+]` (stereo partly drawn): the outcome in data set [1] was Active. For the same compound, the ED50 turned out to be 200 µg/mL in data set [2] and 15 µg/mL in data set [5]. The LD99 in data set [3] stood at 10 µg/mL.

On to `CC(C)=CC(=O)C[C@@](C)(O)[C@H]1CC[C@H]2[C@@H]3C[C@H](OC4O[C@H](C)[C@@H](O)[C@H](OC5OC[C@@H](OC6O[C@H](C)[C@@H](O)[C@H](O)[C@H]6OC6O[C@H](C)[C@H](O)[C@H](O)[C@H]6O)[C@H](O)[C@H]5OC5O[C@H](C)[C@@H](O)[C@H](O)[C@H]5O)[C@H]4O)[C@H]4C[C@@H](O)CC[C@]4(C)C3=CC[C@@]21C` (stereo partly drawn), for which the outcome in data set [1] was Active. In addition, the ED50 in data set [2] worked out at 100 µg/mL (≈ 87.2 µM); in data set [5] it was 10 µg/mL (≈ 8.72 µM). Further, in data set [3], the LD99 came out at 10 µg/mL.

For `CC(C)C(C)C(=O)C[C@@](C)(O)[C@H]1CC[C@H]2[C@@H]3C[C@H](OC4O[C@H](C)[C@@H](O)[C@H](OC5OC[C@@H](OC6O[C@H](C)[C@@H](O)[C@H](O)[C@H]6OC6O[C@H](C)[C@H](O)[C@H](OC7O[C@H](C)[C@H](O)[C@H](O)[C@H]7O)[C@H]6O)[C@H](O)[C@H]5OC5O[C@H](C)[C@@H](O)[C@H](O)[C@H]5O)[C@H]4O)[C@H]4C[C@@H](OS(=O)(=O)[O-])CC[C@]4(C)C3=CC[C@@]21C.[Na+]` (stereo partly drawn), in data set [1], the outcome was Active. In addition, the ED50 was 200 µg/mL in data set [2] and 10 µg/mL in data set [5]. In addition, the LD99 in data set [3] was found to be 5 µg/mL. The HI in data set [4] worked out at 10700.

Consider `CC(C)C(C)C(=O)C[C@@](C)(O)[C@H]1CC[C@H]2[C@@H]3C[C@H](OC4O[C@H](C)[C@@H](O)[C@H](OC5OC[C@@H](OC6O[C@H](CO)[C@H](O)[C@H](O)[C@H]6OC6O[C@H](C)[C@H](O)[C@H](OC7O[C@H](C)[C@H](O)[C@H](O)[C@H]7O)[C@H]6O)[C@H](O)[C@H]5OC5O[C@H](C)[C@@H](O)[C@H](O)[C@H]5O)[C@H]4O)[C@H]4C[C@@H](OS(=O)(=O)[O-])CC[C@]4(C)C3=CC[C@@]21C.[Na+]` (stereo partly drawn), for which the result in data set [1] was Active. Further, the ED50 in data set [2] stood at 100 µg/mL; in data set [5] it was 5 µg/mL. Further, the LD99 in data set [3] turned out to be 2 µg/mL. For the same compound, the HI in data set [4] is on record as 21500.

In the case of `CC(C)=CC(=O)C[C@@](C)(O)[C@H]1CC[C@H]2[C@@H]3C[C@H](OC4O[C@H](CO)[C@@H](O)[C@H](OC5O[C@H](C)[C@@H](OC6O[C@H](C)[C@@H](O)[C@H](O)[C@H]6OC6O[C@H](C)[C@H](O)[C@H](O)[C@H]6O)[C@H](O)[C@H]5OC5O[C@H](C)[C@@H](O)[C@H](O)[C@H]5O)[C@H]4O)[C@H]4C[C@@H](OS(=O)(=O)[O-])CC[C@]4(C)C3=CC[C@@]21C.[Na+]` (stereo partly drawn), in data set [1], the result was Active. In addition, the ED50 in data set [2] was 50 µg/mL; in data set [5] it was 10 µg/mL. Besides, in data set [3], the LD99 was found to be 5 µg/mL.

`CC(C)CC(=O)C[C@@](C)(O)[C@H]1CC[C@H]2[C@@H]3C[C@H](OC4O[C@H](C)[C@@H](O)[C@H](OC5OC[C@@H](OC6O[C@H](CO)[C@H](O)[C@H](O)[C@H]6OC6O[C@H](C)[C@H](O)[C@H](OC7O[C@H](C)[C@H](O)[C@H](O)[C@H]7O)[C@H]6O)[C@H](O)[C@H]5OC5O[C@H](C)[C@@H](O)[C@H](O)[C@H]5O)[C@H]4O)[C@H]4C[C@@H](OS(=O)(=O)[O-])CC[C@]4(C)C3=CC[C@@]21C.[Na+]` (stereo partly drawn): the outcome in data set [1] was Active. Moreover, the ED50 came to 200 µg/mL in data set [2] and 15 µg/mL in data set [5]. Also, the LD99 in data set [3] was 5 µg/mL. For the same compound, the HI in data set [4] is on record as 11400.

In the case of `CC(C)=CC(=O)C[C@@](C)(O)[C@H]1CC[C@H]2[C@@H]3C[C@H](OC4O[C@H](C)[C@@H](O)[C@H](OC5OC[C@@H](OC6O[C@H](CO)[C@H](O)[C@H](O)[C@H]6OC6O[C@H](C)[C@H](O)[C@H](O)[C@H]6O)[C@H](O)[C@H]5OC5O[C@H](C)[C@@H](O)[C@H](O)[C@H]5O)[C@H]4O)[C@H]4C[C@@H](OS(=O)(=O)[O-])CC[C@]4(C)C3=CC[C@@]21C.[Na+]` (stereo partly drawn), the outcome in data set [1] was Active. For the same compound, the ED50 in data set [2] worked out at 100 µg/mL; in data set [5], 15 µg/mL. In data set [3], the LD99 amounted to 5 µg/mL.

As for `CC(C)=CC(=O)C[C@@](C)(O)[C@H]1CC[C@H]2[C@@H]3C[C@H](OC4O[C@H](C)[C@@H](O)[C@H](OC5OC[C@@H](OC6O[C@H](C)[C@@H](O)[C@H](O)[C@H]6OC6O[C@H](C)[C@H](O)[C@H](O)[C@H]6O)[C@H](O)[C@H]5OC5O[C@H](C)[C@@H](O)[C@H](O)[C@H]5O)[C@H]4O)[C@H]4C[C@@H](OS(=O)(=O)[O-])CC[C@]4(C)C3=CC[C@@]21C.[Na+]` (stereo partly drawn), in data set [1], the result was Active. Moreover, the ED50 in data set [2] is 200 µg/mL; in data set [5], 50 µg/mL. Moreover, in data set [3], the LD99 is 50 µg/mL. Moreover, the HI in data set [4] is recorded as below 2420.

With `CC(C)CC(=O)C[C@@](C)(O)[C@H]1CC[C@H]2[C@@H]3C[C@H](OC4O[C@H](CO)[C@@H](O)[C@H](OC5O[C@H](C)[C@@H](OC6O[C@H](C)[C@@H](O)[C@H](O)[C@H]6OC6O[C@H](C)[C@H](O)[C@H](O)[C@H]6O)[C@H](O)[C@H]5OC5O[C@H](C)[C@@H](O)[C@H](O)[C@H]5O)[C@H]4O)[C@H]4C[C@@H](OS(=O)(=O)[O-])CC[C@]4(C)C3=CC[C@@]21C.[Na+]` (stereo partly drawn), the outcome in data set [1] was Active. Moreover, the ED50 in data set [2] is 50 µg/mL; in data set [5], 5 µg/mL. Moreover, the LD99 in data set [3] was 5 µg/mL.

In the case of `CC(C)CC(=O)C[C@@](C)(O)[C@H]1CC[C@H]2[C@@H]3C[C@H](OC4O[C@H](C)[C@@H](O)[C@H](OC5OC[C@@H](OC6O[C@H](C)[C@@H](O)[C@H](O)[C@H]6OC6O[C@H](C)[C@H](O)[C@H](O)[C@H]6O)[C@H](O)[C@H]5OC5O[C@H](C)[C@@H](O)[C@H](O)[C@H]5O)[C@H]4O)[C@H]4C[C@@H](OS(=O)(=O)O)CC[C@]4(C)C3=CC[C@@]21C.N` (stereo partly drawn), in data set [1], the result was Active. Moreover, the ED50 in data set [2] turned out to be 200 µg/mL; in data set [5] it was 15 µg/mL. In addition, the LD99 in data set [3] came to 5 µg/mL.

Consider `CC(C)CC(=O)C[C@@](C)(O)[C@H]1CC[C@H]2[C@@H]3C[C@H](O[C@@H]4O[C@H](C)C(=O)[C@H](OC5O[C@H](C)[C@@H](OC6O[C@H](C)[C@H](O)[C@H](O)[C@H]6OC6O[C@H](C)[C@H](O)[C@H](O)[C@H]6O)[C@H](O)[C@H]5OC5O[C@H](C)[C@@H](O)[C@H](O)[C@H]5O)[C@H]4O)[C@H]4C[C@@H](OS(=O)(=O)[O-])CC[C@]4(C)C3=CC[C@@]21C.[Na+]` (stereo partly drawn), for which the result in data set [1] was Active. For the same compound, the ED50 in data set [2] was determined as 200 µg/mL; in data set [5], 15 µg/mL. Moreover, the LD99 in data set [3] was found to be 5 µg/mL. Also, the HI in data set [4] came to 17700.

With `CC(C)CC(=O)C[C@@](C)(O)[C@H]1CC[C@H]2[C@@H]3C[C@H](OC4O[C@H](C)[C@@H](O)[C@H](OC5OC[C@@H](OC6O[C@H](CO)[C@H](O)[C@H](O)[C@H]6OC6O[C@H](C)[C@H](O)[C@H](O)[C@H]6O)[C@H](O)[C@H]5OC5O[C@H](C)[C@@H](O)[C@H](O)[C@H]5O)[C@H]4O)[C@H]4C[C@@H](OS(=O)(=O)[O-])CC[C@]4(C)C3=CC[C@@]21C.[Na+]` (stereo partly drawn), in data set [1], the outcome was Active. The ED50 came to 100 µg/mL in data set [2] and 10 µg/mL in data set [5]. The LD99 in data set [3] came to 5 µg/mL. Also, the HI in data set [4] is reported as 22000.

Regarding `CC(C)CC(=O)C[C@@](C)(O)[C@H]1CC[C@H]2[C@@H]3C[C@H](OC4O[C@H](C)[C@@H](O)[C@H](OC5OC[C@@H](OC6O[C@H](CO)[C@@H](O)[C@H](O)[C@H]6OC6O[C@H](C)[C@H](O)[C@H](O)[C@H]6O)[C@H](O)[C@H]5OC5O[C@H](C)[C@@H](O)[C@H](O)[C@H]5O)[C@H]4O)[C@H]4C[C@@H](OS(=O)(=O)[O-])CC[C@]4(C)C3=CC[C@@]21C.[Na+]` (stereo partly drawn), in data set [1], the result was Active. For the same compound, the figures for the ED50 in data set [2] and in data set [5] were 200 µg/mL and 15 µg/mL, respectively. Also, in data set [3], the LD99 came to 2 µg/mL.
